From patent publication US12264155B2, “Compounds, pharmaceutical compositions, and methods of preparing compounds and of their use as ATR kinase inhibitors” (Repare Therapeutics Inc., priority 2018, dated 2025)

Each compound was assayed on ATR kinase (CHK1 phosphorylation at Ser345) in HeLa S3 cells (assay: ATR assay in HeLa S3 cells (CHK1 p-Ser345 AlphaScreen SureFire, gemcitabine)). Conditions: Homo sapiens, HeLa S3, HeLa S3 whole cell assay, 3.5 to 4 hours.
Type: cell-based
Experimental: Media was then replaced by 20 μL per well Opti-MEM no phenol red and 5 μL of serial diluted compounds were added to the assay plate for a final DMSO concentration of 0.5%. […] The plate was incubated at 37° C., 1-5% CO2 for 3.5 to 4 hours.
Note: gemcitabine 1.5 µM.

| SMILES | IC50 [nM] |
| --- | --- |
| C[C@@H]1COCCN1c1cc(C2(O)CCN(CC(F)(F)F)CC2)c2cnn(-c3cc[nH]n3)c2n1 [Compound 120] | 1.2 |
| C[C@@H]1COCCN1c1cc(C2(O)C[C@H]3CC[C@@H](C2)S3)c2cnn(-c3cc[nH]n3)c2n1 (stereo partly drawn) [Compound 122] | 1.1 |
| C[C@@H]1COCCN1c1cc(C2(O)CCC3(CC3)CC2)c2cnn(-c3cc[nH]n3)c2n1 [Compound 123] | 0.9 |
| C[C@@H]1COCCN1c1cc(-c2ccccc2S(=O)(=O)NC2CC2)c2cnn(-c3cc[nH]n3)c2n1 [Compound 124] | 63 |
| C[C@@H]1COCCN1c1cc(-c2cccnc2N)c2cnn(-c3cc[nH]n3)c2n1 [Compound 125, (R)-3-(6-(3-methylmorpholino)-1-(1H-pyrazol-3-yl)-1H-pyrazolo[3,4-b]pyridin-4-yl)pyridin-2-amine] | 11 |
| Cc1nc(C(N)=O)c(-c2cc(N3CCOC[C@H]3C)nc3c2cnn3-c2cc[nH]n2)s1 [Compound 127] | 7 |
| C[C@@H]1COCCN1c1cc(-c2ccccc2C(C)(C)O)c2cnn(-c3cc[nH]n3)c2n1 [Compound 128] | 2.4 |
| C[C@@H]1COCCN1c1cc(-c2cccnc2C(N)=O)c2cnn(-c3cc[nH]n3)c2n1 [Compound 129] | 11 |
| C[C@@H]1COCCN1c1cc(-c2cccc(Cl)c2C(N)=O)c2cnn(-c3cc[nH]n3)c2n1 [Compound 130] | 13 |
| C[C@@H]1COCCN1c1cc(-c2cccc(C(F)(F)F)c2C(N)=O)c2cnn(-c3cc[nH]n3)c2n1 [Compound 131] | 1.8 |
| C[C@@H]1COCCN1c1cc(C2(O)CCC(C(C)(C)C)CC2)c2cnn(-c3ccn[nH]3)c2n1 (stereo partly drawn) [Compound 132] | 1.9 |
| C[C@@H]1COCCN1c1cc(C2(O)CCC(OC(F)(F)F)CC2)c2cnn(-c3ccn[nH]3)c2n1 (stereo partly drawn) [Compound 133] | 1.5 |
| C[C@@H]1COCCN1c1cc(N2CCCOCC2=O)c2cnn(-c3cc[nH]n3)c2n1 [Compound 136] | 46 |

Further lines, results first:

| IC50 [nM] | SMILES |
| --- | --- |
| 2.1 | C[C@@H]1COCCN1c1cc(N2CCN(c3ccccn3)CC2)c2cnn(-c3cc[nH]n3)c2n1 [Compound 137] |
| 9.4 | C[C@@H]1COCCN1c1cc(-c2ccc(C(F)(F)F)nc2N)c2cnn(-c3cc[nH]n3)c2n1 [Compound 138] |
| 4.2 | Cc1ccc(-c2cc(N3CCOC[C@H]3C)nc3c2cnn3-c2cc[nH]n2)c(N)n1 [Compound 139] |
| 7.2 | C[C@@H]1COCCN1c1cc(-c2cc(Cl)cnc2N)c2cnn(-c3cc[nH]n3)c2n1 [Compound 140] |
| 3.6 | C[C@@H]1COCCN1c1cc(-c2ccc(F)cc2C(F)(F)F)c2cnn(-c3cc[nH]n3)c2n1 [Compound 142] |
| 7.2 | COc1ccc(-c2cc(N3CCOC[C@H]3C)nc3c2cnn3-c2cc[nH]n2)c(C(F)(F)F)c1 [Compound 143] |
| 1.3 | C[C@@H]1COCCN1c1cc(-c2cccnc2C(F)(F)F)c2cnn(-c3cc[nH]n3)c2n1 [Compound 144] |
| 3.8 | C[C@@H]1COCCN1c1cc(-c2ccc(F)cc2S(C)(=O)=O)c2cnn(-c3cc[nH]n3)c2n1 [Compound 145] |
| 3.1 | C[C@@H]1COCCN1c1cc(-c2ccc(C3CC3)nc2N)c2cnn(-c3cc[nH]n3)c2n1 [Compound 146] |
| 2.5 | C[C@@H]1COCCN1c1cc(C2=C[C@H]3CC[C@@H](C2)O3)c2cnn(-c3cc[nH]n3)c2n1 [Compound 148] |
| 27 | C[C@@H]1COCCN1c1nc2c(cnn2-c2cc[nH]n2)c(-c2ccccc2C(F)(F)F)c1Cl [Compound 149] |
| 7.8 | C[C@@H]1COCCN1c1cc(-c2ccccc2C(F)(F)F)c2c(=O)[nH]n(-c3ccn[nH]3)c2n1 [Compound 150, 6-[(3R)-3-methylmorpholin-4-yl]-1-(1H-pyrazol-5-yl)-4-[2-(trifluoromethyl)phenyl]-2H-pyrazolo[3,4-b]pyridin-3-one] |
| 9.1 | C[C@@H]1COCCN1c1cc(-c2cccnc2C(F)(F)F)c2c(=O)[nH]n(-c3ccn[nH]3)c2n1 [Compound 151] |
| 22 | C[C@@H]1COCCN1c1cc(-c2ccccc2S(C)(=O)=O)c2c(=O)[nH]n(-c3ccn[nH]3)c2n1 [Compound 152] |
